Assays:
[1] = molecular target: CDK5/p25 (Homo sapiens, UniProt Q00535); assay: CDK5 mobility shift assay (enzymatic activity of CDK5/p25); type: biochemical; settings: for IC50: 0.154 nM CDK5/p25, FL peptide 29, 60 min at room temperature, read-out: CDK5 IC50; for CDK5/CDK2 specificity: fold more active against CDK5 than CDK2
Summary of the method: (§1)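 Carna CDK5/p25 (0.154 nM) or CDK2/CycA2 (1.25 nM) was preincubated 30 min with compound, ATP ([…] for CDK5; 37 μM for CDK2) and 10 mM MgCl2 in HEPES pH 7.5. The reaction was started with 1.5 μM FL peptide (29 for CDK5, 18 for CDK2) and run 60 min (CDK5) or 120 min (CDK2) at room temperature. Product was read by mobility shift, with IC50 from a 4-parameter fit.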

[2] = molecular target: CDK2/CycA2 (Homo sapiens, UniProt P24941); assay: CDK2 mobility shift assay (enzymatic activity of CDK2/CycA2); type: biochemical; settings: 1.25 nM CDK2/CycA2, 37 μM ATP, FL Peptide 18, 120 min at room temperature; read-out: CDK2 IC50
Summary of the method: as §1

Sequence of CDK5/p25 (Q00535 whole entry): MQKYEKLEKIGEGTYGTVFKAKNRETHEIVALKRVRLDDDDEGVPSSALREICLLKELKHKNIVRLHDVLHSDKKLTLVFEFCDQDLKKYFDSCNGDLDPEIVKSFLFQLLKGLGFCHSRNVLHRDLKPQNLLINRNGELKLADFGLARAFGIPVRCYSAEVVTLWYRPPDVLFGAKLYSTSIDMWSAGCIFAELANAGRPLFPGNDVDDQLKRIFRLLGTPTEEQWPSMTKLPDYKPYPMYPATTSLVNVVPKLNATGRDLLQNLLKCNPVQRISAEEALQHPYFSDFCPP
Sequence of CDK5/p25 (Q15078 99-307 partner limits assumed): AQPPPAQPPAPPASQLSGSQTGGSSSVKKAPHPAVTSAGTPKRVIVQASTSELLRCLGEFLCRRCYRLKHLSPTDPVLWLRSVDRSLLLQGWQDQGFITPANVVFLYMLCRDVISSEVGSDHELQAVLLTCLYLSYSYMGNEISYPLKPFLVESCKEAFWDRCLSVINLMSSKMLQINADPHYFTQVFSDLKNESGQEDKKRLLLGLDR

| IC50 [1] [nM] | IC50 [2] [nM] | Compound | CDK5/CDK2 specificity [1] |
| --- | --- | --- | --- |
| < 10 | 10 to 100 | CN1CCC(S(=O)(=O)c2ccc3cnc(Nc4ccc5c(c4)COC5)cc3n2)CC1 [Compound 282] | ++ (greater than 10-fold and less than or equal to 100-fold more active against CDK5 than CDK2) |
| 10 to 100 | 100 to 1000 | NC(c1ccc2cnc(Nc3ccc(-n4cccn4)cc3F)cc2n1)C1CCNCC1 (stereo not drawn) [Compound 165, 2-[amino(piperidin-4-yl)methyl]-N-[2-fluoro-4-(pyrazol-1-yl)phenyl]-1,6-naphthyridin-7-amine] | ++ (greater than 10-fold and less than or equal to 100-fold more active against CDK5 than CDK2) |
| < 10 | 100 to 1000 | NC(=O)c1cccc(-c2ccc(Nc3cc4nc(S(=O)(=O)C5CCN(CC6COC6)CC5)ccc4cn3)c(F)c2)c1 [Compound 326] | +++ (greater than 100-fold more active against CDK5 than CDK2) |
| < 10 | 100 to 1000 | N#Cc1cccc(-c2ccc(Nc3cc4nc(C(O)C5CCN(CCO)CC5)ccc4cn3)c(F)c2)c1 (single isomer, unassigned) [Compound 250, 3′-fluoro-4′-[(2-[hydroxy[1-(2-hydroxyethyl)piperidin-4-yl]methyl]-1,6-naphthyridin-7-yl)amino]-[1,1′-biphenyl]-3-carbonitrile] | ++ (greater than 10-fold and less than or equal to 100-fold more active against CDK5 than CDK2) |
| 100 to 1000 | > 1000 | [O-][S@+](c1ccc2cnc(Nc3ccc(-n4cccn4)cc3F)cc2n1)C1CCNCC1 [Compound 117, N-[2-fluoro-4-(pyrazol-1-yl)phenyl]-2-[(S)-piperidine-4-sulfinyl]-1,6-naphthyridin-7-amine] | + (10-fold or less more active against CDK5 than CDK2) |
| < 10 | 100 to 1000 | CN1CCC(S(=O)(=O)c2ccc3cnc(Nc4ccc(N5CCCC5)cc4)cc3n2)CC1 [Compound 301] | +++ (greater than 100-fold more active against CDK5 than CDK2) |
| < 10 | 10 to 100 | CC(C)c1ccc(Nc2cc3nc(S(=O)(=O)C4CCN(C)CC4)ccc3cn2)cc1 [Compound 298] | +++ (greater than 100-fold more active against CDK5 than CDK2) |
| 10 to 100 | > 1000 | N#Cc1cccc(-c2ccc(Nc3cc4nc(C(O)C5CCN(CCO)CC5)ccc4cn3)c(F)c2)c1 (single isomer, unassigned) [Compound 251, 3′-fluoro-4′-[(2-[hydroxy[1-(2-hydroxyethyl)piperidin-4-yl]methyl]-1,6-naphthyridin-7-yl)amino]-[1,1′-biphenyl]-3-carbonitrile] | ++ (greater than 10-fold and less than or equal to 100-fold more active against CDK5 than CDK2) |
| 100 to 1000 | > 1000 | CN1CCC(NS(=O)(=O)c2ccc3cnc(Nc4ccc(-n5ccc(CO)n5)cc4F)cc3n2)CC1 [Compound 203, 7-([2-fluoro-4-[3-(hydroxymethyl)pyrazol-1-yl]phenyl]amino)-N-(1-methylpiperidin-4-yl)-1,6-naphthyridine-2-sulfonamide] | + (10-fold or less more active against CDK5 than CDK2) |
| < 10 | 100 to 1000 | CN1CCC(S(=O)(=O)c2ccc3cnc(Nc4ccc(-n5ccc(C(N)=O)n5)cc4F)cc3n2)CC1 [Compound 317, 1-(3-fluoro-4-[[2-(1-methylpiperidin-4-ylsulfonyl)-1,6-naphthyridin-7-yl]amino]phenyl)pyrazole-3-carboxamide] | +++ (greater than 100-fold more active against CDK5 than CDK2) |
| < 10 | 100 to 1000 | CN1CCC(C(O)c2ccc3cnc(Nc4ccc(-n5cccn5)cc4F)cc3n2)CC1 (single isomer, unassigned) [Compound 175, (7-[[2-fluoro-4-(pyrazol-1-yl)phenyl]amino]-1,6-naphthyridin-2-yl) (1-methylpiperidin-4-yl)methanol] | +++ (greater than 100-fold more active against CDK5 than CDK2) |
| 10 to 100 | > 1000 | CC(c1ccc2cnc(Nc3ccc(-n4ccc(CO)n4)cc3F)cc2n1)C1CCN(C)CC1 (single isomer, unassigned) [Compound 186, [1-[3-fluoro-4-([2-[1-(1-methylpiperidin-4-yl)ethyl]-1,6-naphthyridin-7-yl]amino)phenyl]pyrazol-3-yl]methanol] | ++ (greater than 10-fold and less than or equal to 100-fold more active against CDK5 than CDK2) |
| > 1000 | > 1000 | CN(C)[C@H]1CC[C@@H](N(CC(=O)O)c2ccc3cnc(Nc4ccc(-n5ccc(CO)n5)cc4F)cc3n2)CC1 [Compound 182, [[7-([2-fluoro-4-[3-(hydroxymethyl)pyrazol-1-yl]phenyl]amino)-1,6-naphthyridin-2-yl][(1s,4s)-4-(dimethylamino)cyclohexyl]amino]acetic acid] | ++ (greater than 10-fold and less than or equal to 100-fold more active against CDK5 than CDK2) |
| < 10 | 10 to 100 | OCc1ccn(-c2ccc(Nc3cc4nc(SC5CCNCC5)ccc4cn3)c(F)c2)n1 [Compound 108, [1-(3-fluoro-4-[[2-(piperidin-4-ylsulfanyl)-1,6-naphthyridin-7-yl]amino]phenyl)pyrazol-3-yl]methanol] | ++ (greater than 10-fold and less than or equal to 100-fold more active against CDK5 than CDK2) |
| < 10 | 100 to 1000 | Cc1cc(C)cc(Nc2cc3nc(S(=O)(=O)C4CCN(C)CC4)ccc3cn2)c1 [Compound 260] | +++ (greater than 100-fold more active against CDK5 than CDK2) |
| 100 to 1000 | 100 to 1000 | CN1CCC(C(O)c2ccc3cnc(Nc4ccc(-n5cccn5)cc4F)cc3n2)CC1 (single isomer, unassigned) [Compound 176, (7-[[2-fluoro-4-(pyrazol-1-yl)phenyl]amino]-1,6-naphthyridin-2-yl) (1-methylpiperidin-4-yl)methanol] | + (10-fold or less more active against CDK5 than CDK2) |
| > 1000 | > 1000 | CS(=O)(=O)N(c1ccc2cnc(Nc3ccc(-n4cccn4)cc3F)cc2n1)C1CCNCC1 [Compound 106, N-(7-[[2-fluoro-4-(pyrazol-1-yl)phenyl]amino]-1,6-naphthyridin-2-yl)-N-(piperidin-4-yl)methanesulfonamide] | + (10-fold or less more active against CDK5 than CDK2) |
| 100 to 1000 | > 1000 | CN1CCC(O)(C(O)c2ccc3cnc(Nc4ccc(-n5cccn5)cc4F)cc3n2)CC1 (stereo not drawn) [Compound 240, 4-[(7-[[2-fluoro-4-(pyrazol-1-yl)phenyl]amino]-1,6-naphthyridin-2-yl) (hydroxy)methyl]-1-methylpiperidin-4-ol] | ++ (greater than 10-fold and less than or equal to 100-fold more active against CDK5 than CDK2) |
| < 10 | 10 to 100 | CN1CCC(C(C)(O)c2ccc3cnc(Nc4ccc(-c5cccnc5)cc4F)cc3n2)CC1 (stereo not drawn) [Compound 329] | ++ (greater than 10-fold and less than or equal to 100-fold more active against CDK5 than CDK2) |
| 10 to 100 | 100 to 1000 | CN1CCC(/C(=N/O)c2ccc3cnc(Nc4ccc(-n5cccn5)cc4F)cc3n2)CC1 [Compound 381] | + (10-fold or less more active against CDK5 than CDK2) |
| < 10 | 10 to 100 | CN1CCC(S(=O)(=O)c2ccc3cnc(Nc4ccc(S(C)(=O)=O)cc4)cc3n2)CC1 [Compound 271] | + (10-fold or less more active against CDK5 than CDK2) |
| < 10 | 10 to 100 | CCc1cccc(Nc2cc3nc(C(C)(O)C4CCN(C)CC4)ccc3cn2)c1 (stereo not drawn) [Compound 373] | ++ (greater than 10-fold and less than or equal to 100-fold more active against CDK5 than CDK2) |
| < 10 | 10 to 100 | NC(=O)c1cccc(Nc2cc3nc(SC4CCNCC4)ccc3cn2)c1 [Compound 134, 3-[[2-(piperidin-4-ylsulfanyl)-1,6-naphthyridin-7-yl]amino]benzamide] | ++ (greater than 10-fold and less than or equal to 100-fold more active against CDK5 than CDK2) |
| 100 to 1000 | > 1000 | CN1CCC(C(C)(O)c2ccc3cnc(Nc4ccc(-c5cccc(C#N)c5)cc4F)cc3n2)CC1 (stereo not drawn) [Compound 337] | ++ (greater than 10-fold and less than or equal to 100-fold more active against CDK5 than CDK2) |

| Compound | IC50 [1] [nM] | IC50 [2] [nM] | CDK5/CDK2 specificity [1] |
| --- | --- | --- | --- |
| N#CCN(c1ccc2cnc(Nc3ccc(-n4ccc(CO)n4)cc3F)cc2n1)C1CCNCC1 [Compound 162, 2-[[7-([2-fluoro-4-[3-(hydroxymethyl)pyrazol-1-yl]phenyl]amino)-1,6-naphthyridin-2-yl](piperidin-4-yl)amino]acetonitrile] | 100 to 1000 | > 1000 | ++ (greater than 10-fold and less than or equal to 100-fold more active against CDK5 than CDK2) |
| CCN1CCC(N(CC(=O)O)c2ccc3cnc(Nc4ccc(-n5ccc(CO)n5)cc4F)cc3n2)CC1 [Compound 144, [(1-ethylpiperidin-4-yl)[7-([2-fluoro-4-[3-(hydroxymethyl)pyrazol-1-yl]phenyl]amino)-1,6-naphthyridin-2-yl]amino]acetic acid] | < 10 | 100 to 1000 | +++ (greater than 100-fold more active against CDK5 than CDK2) |

— patent US20220389009A1, “SUBSTITUTED 1,6-NAPHTHYRIDINE INHIBITORS OF CDK5” (Goldfinch Bio, Inc., priority 2019, published 2022)
